Reference: patent US20250031689A1, “CRYOPRESERVATION COMPOSITIONS AND METHODS” (priority 2023, published 2025)

Tests used:
HEK293 cells = experiment: Freeze-thaw (-80° C.) cryoprotection of HEK293 cells, post-thaw attachment/viability; format: cell-based
Experimental: For the studies detailed below, the following procedures were used for preparation of cell cultures prior to cryopreservation: Both HEK-293 and HCT-115 cells were cultured in DMEM medium supplemented with 10% calf serum or 10% fetal calf serum. Two or three days prior to initiating a cryopreservation study, cells were seeded onto 100 mm tissue culture treated dishes in the above described culture medium and placed into a humidified, 5% CO2 incubator and allowed to propagate for 2 or 3 days. Preparation of growing cultures for cryostorage was performed as follows: Medium from 100 mm dishes containing growing cultures prepared as described above was aspirated and replaced with saline containing 0.5 mM EDTA and allowed to incubate for 2-3 minutes. This material was also aspirated and replaced with saline containing 0.25% trypsin and 0.25 mM EDTA. After incubating this second mixture for an additional 3-5 minutes and observing partial detachment of cells from dishes, cells were removed by using inertial force against the dish or by using a stream of saline or base culture medium to dislodge and collect cells from the dish. Cells harvested in this manner were separated by centrifugation (100 g×3 min), resuspended in the desired cryostorage solution, dispensed into polypropylene vials, positioned in microtube racks that were placed into a −80° C. freezer. Cells were kept frozen for 24-168 hours, at which time cryovials were removed to wet ice and cells thawed and plated into appropriate tissue culture vessels, typically 6 or 12 well plates. Cells were visualized with the aid of a Nikon TE300 microscope with an attached camera to allow documentation.
As described above, we wished to test the ability of amino acid species to serve as primary cryoprotectants per the definition provided, i.e. at concentrations at which they provided osmotic pressure sufficient to induce cell dehydration. For this purpose we prepared solutions of several amino acids, including alanine, glycine, proline, glutamate, histidine, aspartate, leucine, lysine, phenylalanine, threonine, arginine, and serine. These were standardized to 1M and adjusted to pH 7.1-pH 7.3, where possible or to maximal concentrations when 1M was above the solubility such as histidine and leucine. These solutions were used by dilution in water to test for their ability to serve as a cryoprotectant or diluted to the desired target concentration in a variety of base media including saline, and the two growth mediums described above (DMEM and OptiMeM) in the studies with three different mammalian cell lines described below described below.
FIG. 1. […] To test this capacity against a well-established cryoprotectant from those described above, HEK293 cultures were prepared as above in one of three base cryostorage mediums as noted below each pair of photographs depicted in panel A: (a) OptiMEM culture medium (ThermoFisher), a serum free growth medium, (b) DMEM culture medium containing 10% serum, or (c) 0.3M glutamate pH 7.2. One sample was prepared in each storage medium as described (labels on the bottom of each vertical pair of photographs), and an additional sample for each was prepared with 7.5% DMSO. 23 hours after plating thawed cells, cultures were visualized with 4× (upper) and 20× objectives (lower). […] The images were also analyzed using NIH Image to count cell numbers, depicted in panel B.
FIG. 2. […] HEK293 cells were prepared as described above in OptiMEM medium and apportioned into 4 samples containing 0 mM, 100 mM, 200 mM, or 300 mM glutamate (labels below photograph). After completing a freeze-thaw cycle, each sample was plated and visualized 23 hours after plating.

[1] = test system: ovine pre-adipocyte cells; experiment: Freeze-thaw cryoprotection of cells suspended in saline, cell yield by ImageJ (FIG. 4); format: cell-based
cells = settings: NaCl at concentrations where glutamate acts as a CPA
Experimental: We developed a workflow that tested cryoprotection of cells suspended in physiological saline (150 mM NaCl), overcoming the need to resuspend centrifuged cells directly in a final cryoprotection buffer. […] Thus, in these studies, trypsinized cells were centrifuged as described above, but resuspended in saline prior to diluting into a test solution. The photographs in FIG. 4A depict representative fields at 4× magnification of 6-well plates seeded with ovine pre-adipocyte cells, frozen in solutions comprised of agents and concentrations indicated to the left of each row. The cells in each field were enumerated by using ImageJ (NIH) to carryout noise reduction and thresholding before enumerating cell particles (FIG. 4B). It should be noted that dilution of the initial saline sample contributed 0.105 M NaCl concentration in addition to the agents indicated to the left. To provide a positive sample, we also tested DMSO at three concentrations (1%, 3%, and 10%). […] Therefore, we also tested binary mixtures as well as a ternary and a quaternary mixture.
We ascertained if such synergy might also exist with other well established cryoprotectants such as betaine or trehalose. […]

HCT 115 cells = experiment: Freeze-thaw cryoprotection of HCT 115 cells, crystal violet stain density (cell yield); format: cell-based; settings: glutamate in OptiMEM, 96 hours growth after thaw
Experimental: FIG. 3. Cryoprotectant activity of glutamate requires concentrations greater than 50 mM. The dose response relationship of glutamate and its ability to impart cryoprotective activity to OptiMeM prompted the question of our findings being extensible to other cell types such as HCT 115 cells (FIG. 2). Cells were prepared as described above in OptiMEM medium containing either no additions, 7.5% DMSO, 50 mM glutamate, 150 mM glutamate, 250 mM glutamate, or 350 mM glutamate. Thawed cells were plated, washed at 24 hours to remove debris, and allowed to grow for a total of 96 hours, at which time they were fixed with 10% formol (15 minutes). Fixed cultures were stained with 0.2% crystal violet for 2 hours, destained in 4 changes of distilled water, dried and scanned on an Epson scanner at 1200 dpi (panel A). The density of stain from each culture, corresponding to cell yield, was quantified using ImageJ (NIH). The density of each culture was plotted in a bar graph and is shown in panel B. The stained 6-well plate containing each culture is shown in panel A, with insets showing a photograph from representative cultures visualized with a 4× objective after staining. The order of the samples in the plate shown in panel A is (left to right, top to bottom): media alone, media+7.5% DMSO, media+50 mM glutamate, media+150 mM glutamate, media+250 mM glutamate, media+350 mM glutamate. […]

[2] = test system: Cygnus monkey spermatozoa; settings: at 5-10 mM; cited from earlier work
mouse oocytes = settings: 2M proline, in the presence of DMSO and ethylene glycol; cited from earlier work
RBCs = settings: 1.5M proline, only in the presence of trehalose; cited from earlier work

SMILES: C[S+](C)[O-] [DMSO, Dimethylsulfoxide]
- attachment of cells at 23 hours after plating thawed cells (HEK293 cells; 7.5% DMSO in OptiMEM or DMEM containing 10% serum): do attach
- cryoprotection as measured by cell yield ([1]; DMSO at 1%, saline, -80° C.): cryoprotective activity was apparent
- cryoprotection as measured by cell yield ([1]; DMSO at 3% and 10%, saline, -80° C.): capable cryoprotective agent

SMILES: [Cl-].[Na+] [NaCl]
- cryoprotection by increased ionic strength (cells): does not provide any significant cryoprotection

SMILES: N[C@@H](CCC(=O)O)C(=O)O [glutamate]
- post-thaw viability 23 hours after plating (HEK293 cells; 100 mM glutamate in OptiMEM): some extended post-thaw viability
- post-thaw viability and attachment 23 hours after plating (HEK293 cells; 200 mM and 300 mM glutamate in OptiMEM): increased viability
- entry into the growth cycle compared to cells in medium alone (HEK293 cells; 0.3M glutamate in OptiMEM): improved entry into the growth cycle
- attachment of cells at 23 hours after plating thawed cells (HEK293 cells; 0.3M glutamate pH 7.2 as sole cryoprotectant): attachment at least to the level of either medium containing DMSO
- post-thaw viability in initial survey of amino acids (HEK293 cells; HEK293 cells, compared among several amino acids): highest degree of post-thaw viability
- concentration required for cryoprotectant activity (HCT 115 cells): greater than 50 mM
- cryoprotection as measured by cell yield ([1]; glutamate as a sole agent, comparable to 3% and 10% DMSO): significant cryoprotection

SMILES: NC(=O)CC[C@H](N)C(=O)O [glutamine]
- increase in post-thaw recovery above that obtained with the control [2]: approximately 20%

SMILES: NCC(=O)O [glycine]
- increase in post-thaw recovery above that obtained with the control [2]: approximately 20%

SMILES: O=C(O)[C@@H]1CCCN1 [proline]
- increase in post-thaw recovery above that obtained with the control [2]: approximately 20%
- increase in implantation rate (mouse oocytes): 6-10%
- hemolysis of frozen cells (RBCs): able to reduce hemolysis
